Patent US20040044006A1, “Methods of use of quinolone compounds against pneumococcal and haemophilus bacteria” (priority 1999, published 2004)
In brackets after ≈: the same amount, converted by molar mass. Where two headings read alike, the source gives them in different places.

Tests used:
[1] = test system: quinolone susceptible pneumococci (ciprofloxacin MICs ≦4.0 μg/ml); test: Agar dilution MICs of 207 quinolone susceptible pneumococcal strains; type: cell-based, Streptococcus pneumoniae; settings: Streptococcus pneumoniae, agar dilution; for MIC90: read-out: MIC90; for MIC: read-out: MIC range
Protocol: All susceptible, and some intermediate and resistant strains, were recent U.S. isolates. The remainder of intermediate and resistant strains were isolated in South Africa, Spain, France, Central and Eastern Europe, and Korea. […] Additionally these strains were tested for mutations in parC, gyrA, parE, and gyrB (Pan, et al., Antimicrob. Agents Chemother. 40:2321-2326, 1996) and for efflux mechanism (Brenwald, et al., Antimicrob. Agents Chemother. 42:2032-2035, 1998). For time-kill studies, 4 penicillin susceptible, 4 intermediate and 4 resistant strains (2 quinolone resistant) were tested, while for PAE studies 5 quinolone susceptible and 1 resistant strains were studied.
(§1) Agar dilution methodology was performed on 234 strains as described previously (M. R. Jacobs, Clin. Infect. Dis. 15:119-127, 1992; Jacobs, et al., Rev. Med. Microbiol. 6:77-93, 1995), using Mueller-Hinton agar (BBL Microbiology Systems, Cockeysville, Md.) supplemented with 5% sheep blood. Broth MICs for 12 strains tested by time-kill and 6 tested by PAE were performed according to NCCLS recommendations (Methods for Dilution Antimicrobial Susceptibility Tests for Bacteria that Grow Aerobically, 3rd Edition, NCCLS, Villanova, Pa.) using cation-adjusted Mueller-Hinton broth with 5% lysed defibrinated horse blood. Standard quality control strains, including Streptococcus pneumoniae ATCC 49619, were included in each run of agar and broth dilution MICs.

pneumococcal strains = test: Microbroth dilution MICs of strains tested by time-kill and PAE; type: cell-based; settings: Streptococcus pneumoniae, read-out: Microdilution MIC
Protocol: as §1

[2] = test system: penicillin susceptible and resistant pneumococcal strains (2 quinolone resistant); test: Time-kill testing of 12 pneumococcal strains; type: cell-based, Streptococcus pneumoniae; settings: 12 penicillin susceptible and resistant pneumococcal strains; 24 h; bactericidal = ≧3 log10 cfu/ml (99.9%) reduction
Protocol: For time-kill studies, glass tubes containing 5 ml cation-adjusted Mueller-Hinton broth (Difco)+5% lysed horse blood with doubling antibiotic concentrations were inoculated with 5×10^5 to 5×10^6 cfu/ml and incubated at 35° C. in a shaking water bath. […] Growth controls with inoculum but no antibiotic were included with each experiment (Pankuch, et al., Antimicrob. Agents Chemother. 38:2065-2072, 1994; Pankuch, et al., Antimicrob. Agents Chemother. 40:1653-1656, 1996).
Lysed horse blood was prepared as described previously. The bacterial inoculum was prepared by diluting a 16 h broth (medium as above) culture in the same medium. Dilutions required to obtain the correct inoculum (5×10^5-5×10^6 cfu/ml) were determined by prior viability studies using each strain (Pankuch, et al., Antimicrob. Agents Chemother. 38:2065-2072, 1994; Pankuch, et al., Antimicrob. Agents Chemother. 40: 1653-1656, 1996).
To inoculate each tube of serially diluted antibiotic, 50 μl of diluted inoculum was delivered by pipette beneath the surface of the broth. Tubes were then vortexed and plated for viability counts within 10 min (approximately 0.2 h). The original inoculum was determined by using the untreated growth control. Only tubes containing an initial inoculum within the range of 5×10^5 to 5×10^6 cfu/ml were acceptable (Pankuch, et al., Antimicrob. Agents Chemother. 38:2065-2072, 1994; Pankuch, et al., Antimicrob. Agents Chemother. 40:1653-1656, 1996).
Viability counts of antibiotic-containing suspensions were performed by plating ten-fold dilutions of 0.1 ml aliquots from each tube in sterile Mueller-t-Hinton broth onto trypticase soy agar 5% sheep blood agar plates (BBL). Recovery plates were incubated for up to 72 h. Colony Counts were performed on plates yielding 30-300 colonies. The lower limit of sensitivity of colony counts was 300 cfu/ml (Pankuch, et al., Antimicrob. Agents Chemother. 38:2065-2072, 1994; Pankuch, et al., Antimicrob. Agents Chemother. 40:1653-1656, 1996).
Time-kill assays were analysed by determining the number of strains which yielded a log10 cfu/ml of −1, −2 and −3 at 0, 3, 6, 12 and 24 h, compared to counts at time 0 h. Antimicrobials were considered bactericidal at the lowest concentration that reduced the original inoculum by ≧3 log10 cfu/ml (99.9%) at each of the time periods, and bacteriostatic if the inoculum was reduced by 0-3 log10 cfu/ml. […] The problem of bacterial carryover was addressed as described previously. For macrolide time-kill testing, only strains with MICs≦4.0 μg/ml were tested (Pankuch, et al., Antimicrob. Agents Chemother. 38:2065-9072, 1994; Pankuch, et al., Antimicrob. Agents Chemother. 40:1653-1656, 1996).

[3] = test system: pneumococci (5 quinolone susceptible and 1 resistant strains); test: Post-antibiotic effect (PAE) testing; type: cell-based, Streptococcus pneumoniae; settings: 10×MIC; range over strains
Protocol: The post-antibiotic effect (PAE) (Craig, et al., V. Lorian (ed.) Antibiotics in Laboratory Medicine, Williams and Wilkins, Baltimore, pages 296-399, 1996) was determined by the viable plate count method, using Mueller-Hinton broth (MHB) supplemented with 5% lysed horse blood when testing pneumococci. […] Additionally, the one quinolone resistant strain was exposed at quinolone concentrations 5×MIC. Tubes containing 5 ml broth with antibiotic were inoculated with approximately 5×10^6 cfu/ml. Growth controls with inoculum but no antibiotic were included with each experiment. Tubes were placed in a shaking water bath at 35° C. for 1 h. At the end of the exposure period, cultures were diluted 1:1000 to remove antibiotic.
Viability counts were determined before exposure and immediately after dilution (0 h), and then every 2 h until tube turbidity reached a #1 McFarland standard. Inocula were prepared by suspending growth from an overnight blood agar plate in broth. The broth was incubated at 35° C. for 2-4 h in a shaking water bath until turbidity matched a #1 McFarland standard, and checked for viability by plate counts (Spangler, et al., Antimicrob. Agents Chemother. 41:2173-9176, 1997; Spangler, et al., Antimicrob. Agents Chemother. 42:1253-1255, 1998).
The PAE was defined as PAE=T-C; T=time required for viability counts of an antibiotic-exposed culture to increase by 1 log10 above counts immediately after dilution; C=corresponding time for growth control. For each experiment, viability counts (log10 cfu/ml) were plotted against time, and results expressed as the mean of two separate assays±S D (Craig, et al., V. Lorian (ed), Antibiotics in Laboratory Medicine, Williams and Wilkins, Baltimore, pages 296-329, 1996).

[4] = strain 1 (S) penicillin susceptible
[5] = strain 2 (S) penicillin susceptible
[6] = strain 3 (S) penicillin susceptible, quinolone-resistant
[7] = strain 4 (S) penicillin susceptible, quinolone-resistant
[8] = strain 5 (I) penicillin intermediate
[9] = strain 8 (I) penicillin intermediate
[10] = strain 9 (R) penicillin resistant
[11] = strain 11 (R) penicillin resistant
[12] = strain 12 (R) penicillin resistant

| SMILES | MIC90 ([1]; Penicillin I strains) [µg/mL] | MIC ([1]; Penicillin I strains) [µg/mL] | MIC50 ([1]; Penicillin R strains) [µg/mL] | MIC90 ([1]; Penicillin R strains) [µg/mL] | MIC ([1]; Penicillin R strains) [µg/mL] | MIC50 ([1]; Penicillin S strains) [µg/mL] | MIC90 ([1]; Penicillin S strains) [µg/mL] | MIC ([1]; Penicillin S strains) [µg/mL] | MIC (pneumococcal strains; [4]) [µg/mL] | MIC (pneumococcal strains; [5]) [µg/mL] | MIC (pneumococcal strains; [6]) [µg/mL] | MIC (pneumococcal strains; [7]) [µg/mL] | MIC (pneumococcal strains; [8]) [µg/mL] | MIC (pneumococcal strains; [9]) [µg/mL] | MIC (pneumococcal strains; [10]) [µg/mL] | MIC (pneumococcal strains; strain 10 (I)) [µg/mL] | MIC (pneumococcal strains; [11]) [µg/mL] | MIC (pneumococcal strains; [12]) [µg/mL] | concentration at which bactericidal after 24 h [2] [×MIC] | PAE for non-quinolone compounds [3] [h] | other results |
| --- | --- | --- | --- | --- | --- | --- | --- | --- | --- | --- | --- | --- | --- | --- | --- | --- | --- | --- | --- | --- | --- |
| CC1(C)S[C@@H]2[C@H](NC(=O)[C@H](N)c3ccc(O)cc3)C(=O)N2[C@H]1C(=O)O [Amoxicillin, amoxicillin] | 1 (≈ 2.74 µM) | 0.016 to 4 (≈ 0.0438 to 10.9 µM) | 2 (≈ 5.47 µM) | 4 (≈ 10.9 µM) | 0.5 to 8 (≈ 1.37 to 21.9 µM) | 0.016 (≈ 0.0438 µM) | 0.06 (≈ 0.164 µM) | 0.008 to 0.25 (≈ 0.0219 to 0.684 µM) | 0.016 (≈ 0.0438 µM) | 0.016 (≈ 0.0438 µM) | 0.008 (≈ 0.0219 µM) | 0.008 (≈ 0.0219 µM) | 0.03 (≈ 0.0821 µM) | 0.06 (≈ 0.164 µM) | 1 (≈ 2.74 µM) | 1 (≈ 2.74 µM) | 2 (≈ 5.47 µM) | 2 (≈ 5.47 µM) | 2 | 0.3 to 5.8 |  |
| CO/N=C(\C(=O)N[C@@H]1C(=O)N2C(C(=O)O)=C(COC(N)=O)CS[C@H]12)c1ccco1 [Cefuroxime, cefuroxime] | 2 (≈ 4.71 µM) | 0.125 to 8 (≈ 0.295 to 18.9 µM) | 8 (≈ 18.9 µM) | 16 (≈ 37.7 µM) | 0.5 to 32 (≈ 1.18 to 75.4 µM) | 0.03 (≈ 0.0707 µM) | 0.25 (≈ 0.589 µM) | 0.008 to 2 (≈ 0.0189 to 4.71 µM) | 0.5 (≈ 1.18 µM) | 0.25 (≈ 0.589 µM) | 0.016 (≈ 0.0377 µM) | 0.016 (≈ 0.0377 µM) | 0.5 (≈ 1.18 µM) | 0.25 (≈ 0.589 µM) | 2 (≈ 4.71 µM) | 0.5 (≈ 1.18 µM) | 4 (≈ 9.43 µM) | 2 (≈ 4.71 µM) | 4 | 0.8 to 2.9 | MIC50 ([1]; Penicillin I strains): 0.5 µg/mL (≈ 1.18 µM); MIC (pneumococcal strains; strain 6 (I) penicillin intermediate): 0.5 µg/mL (≈ 1.18 µM); MIC (pneumococcal strains; strain 7 (I) penicillin intermediate): 0.5 µg/mL (≈ 1.18 µM) |
